Laboratory results from patent US6583180B2, “Glucocorticoid receptor modulators” (Abbott Laboratories, priority 2001, dated 2003).
pIC50: −log10 of the molar value.

How the values were obtained:
[1] = molecular target: T1, progesterone receptor (PR) (Homo sapiens, UniProt P06401); experiment: Radioligand binding assay for progesterone receptor (similar protocol);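 note: radioligand binding measured with cytosol preparations containing the human progesterone receptor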
T1 sequence (P06401 1-933): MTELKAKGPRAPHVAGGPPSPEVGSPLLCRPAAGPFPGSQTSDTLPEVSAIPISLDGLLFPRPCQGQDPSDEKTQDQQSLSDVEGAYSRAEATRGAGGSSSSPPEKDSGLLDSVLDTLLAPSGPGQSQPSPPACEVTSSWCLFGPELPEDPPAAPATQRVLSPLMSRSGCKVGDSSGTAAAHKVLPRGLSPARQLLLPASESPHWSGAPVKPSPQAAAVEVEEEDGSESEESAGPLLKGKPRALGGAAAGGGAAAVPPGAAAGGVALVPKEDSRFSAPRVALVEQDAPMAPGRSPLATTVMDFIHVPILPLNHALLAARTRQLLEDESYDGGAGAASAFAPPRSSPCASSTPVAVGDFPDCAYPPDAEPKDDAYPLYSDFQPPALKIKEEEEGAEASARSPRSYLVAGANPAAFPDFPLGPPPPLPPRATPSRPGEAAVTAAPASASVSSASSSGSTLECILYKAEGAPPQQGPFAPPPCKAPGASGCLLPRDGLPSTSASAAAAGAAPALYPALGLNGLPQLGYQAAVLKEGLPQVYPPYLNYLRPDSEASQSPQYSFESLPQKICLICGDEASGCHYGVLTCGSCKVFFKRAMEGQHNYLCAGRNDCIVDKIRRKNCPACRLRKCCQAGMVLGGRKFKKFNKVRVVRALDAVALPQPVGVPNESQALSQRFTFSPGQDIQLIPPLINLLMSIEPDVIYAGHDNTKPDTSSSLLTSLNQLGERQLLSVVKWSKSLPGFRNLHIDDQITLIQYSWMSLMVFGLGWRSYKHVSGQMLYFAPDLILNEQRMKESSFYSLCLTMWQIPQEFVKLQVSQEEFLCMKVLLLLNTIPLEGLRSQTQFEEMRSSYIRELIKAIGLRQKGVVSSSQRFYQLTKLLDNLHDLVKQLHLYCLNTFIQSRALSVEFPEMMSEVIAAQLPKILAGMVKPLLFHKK
Description: Methods for Radiolipand Binding Studies with Human Glucocorticoid and Progesterone Receptor Cytosol

[2] = molecular target: T2, Human glucocorticoid receptors (Homo sapiens, UniProt P04150); experiment: Radioligand filter binding assay, displacement of 3[H]-dexamethasone from hGR; settings: read-out: GR Binding (% Inhibition at 1.7 μM)
T2 construct: made in house; host or cells: Sf9 insect cells, recombinant baculovirus (BAC-TO-BAC)
T2 sequence (P04150 1-777): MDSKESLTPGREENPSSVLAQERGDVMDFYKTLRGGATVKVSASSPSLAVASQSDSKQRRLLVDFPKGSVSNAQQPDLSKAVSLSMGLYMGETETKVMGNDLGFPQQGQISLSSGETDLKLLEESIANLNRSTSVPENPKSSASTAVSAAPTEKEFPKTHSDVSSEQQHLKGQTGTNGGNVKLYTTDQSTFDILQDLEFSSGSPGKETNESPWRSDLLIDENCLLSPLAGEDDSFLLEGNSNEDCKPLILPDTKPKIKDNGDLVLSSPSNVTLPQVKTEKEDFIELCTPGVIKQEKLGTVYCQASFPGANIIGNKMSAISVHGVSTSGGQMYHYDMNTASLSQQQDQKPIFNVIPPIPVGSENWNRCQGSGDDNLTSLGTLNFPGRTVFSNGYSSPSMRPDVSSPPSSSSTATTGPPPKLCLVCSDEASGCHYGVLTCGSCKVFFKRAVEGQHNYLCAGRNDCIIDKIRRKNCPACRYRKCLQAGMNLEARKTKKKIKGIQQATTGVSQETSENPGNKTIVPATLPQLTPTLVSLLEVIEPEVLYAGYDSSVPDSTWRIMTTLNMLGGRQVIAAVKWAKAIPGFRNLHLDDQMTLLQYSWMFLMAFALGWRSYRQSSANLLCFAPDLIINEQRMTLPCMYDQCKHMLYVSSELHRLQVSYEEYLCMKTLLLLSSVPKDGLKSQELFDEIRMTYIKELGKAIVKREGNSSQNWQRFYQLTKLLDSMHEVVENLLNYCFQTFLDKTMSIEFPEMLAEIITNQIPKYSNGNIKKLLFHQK
In short: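 Recombinant hGR extract from baculovirus-infected Sf9 cells (final ~1 nM receptor) incubated with ³H-dexamethasone and test compound dilutions in duplicate, EDTA/phosphate pH 8 buffer with MTG, overnight (15-20 h) at +4° C. Bound label collected on PEI-treated GF/B filters and scintillation-counted; IC50 from four-parameter fit of corrected cpm.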

Q: With `Cc1c(NS(C)(=O)=O)cccc1N(Cc1ccc(Oc2cccc(OCCCC(=O)N(C)CC(=O)O)c2)cc1)Cc1ccc(F)cc1F` [Example 326, N-(4-(3-(4-(((2,4-difluorobenzyl)(2-methyl-3-((methylsulfonyl)amino)phenyl)amino)methyl)phenoxy)phenoxy)butanoyl)-N-methylglycine] as the compound, how does the pIC50 [1] read?
A: 6.74

Q: What about the inhibition at 1.7 µM [2] of the same compound?
A: 97%

Q: How did the pIC50 [1] turn out when `Cc1c(NS(C)(=O)=O)cccc1N(Cc1ccc(Oc2ccc(CCC(=O)O)cc2)cc1)Cc1ccccc1Br` [Example 76, 3-(4-{4-[((2-bromobenzyl){2-methyl-3-[(methylsulfonyl)amino]phenyl}amino)methyl]phenoxy}phenyl)propanoic acid] was run?
A: 6.83

Q: What about the inhibition at 1.7 µM [2] of the same compound?
A: 96.5%

Q: With `Cc1c(NS(C)(=O)=O)cccc1N(Cc1ccc(OCc2ccoc2)cc1)Cc1ccc(F)cc1F` [Example 154, N-(3-{(2,4-difluorobenzyl)[4-(3-furylmethoxy)benzyl]amino}-2-methylphenyl)methanesulfonamide] as the compound, how does the pIC50 [1] read?
A: 6.04

Q: And the inhibition at 1.7 µM [2]?
A: 92.3%

Q: With `COCCOCCOc1cccc(Oc2ccc(CN(Cc3ccccc3)c3cccc(NS(C)(=O)=O)c3C)cc2)c1` [Example 69, N-{3-[benzyl(4-{3-[2-(2-methoxyethoxy)ethoxy]phenoxy}benzyl)amino]-2-methylphenyl}methanesulfonamide] as the compound, how does the pIC50 [1] read?
A: 6.91

Q: And the inhibition at 1.7 µM [2]?
A: 86.9%

Q: What does the source list for `Cc1c(NS(C)(=O)=O)cccc1N(Cc1ccc(F)cc1F)Cc1ccccc1C#N` [Example 25, N-{3-[(2-cyanobenzyl)(2,4-difluorobenzyl)amino]-2-methylphenyl}methanesulfonamide]?
A: pIC50 [1]: 5.75; inhibition at 1.7 µM [2]: 87.5%

Q: How did the pIC50 [1] turn out when `Cc1c(NS(C)(=O)=O)cccc1N(Cc1ccc(Oc2cccc(OCCCC(=O)NCCCC(=O)O)c2)cc1)Cc1ccc(F)cc1F` [Example 325, 4-((4-(3-(4-(((2,4-difluorobenzyl)(2-methyl-3-((methylsulfonyl)amino)phenyl)amino)methyl)phenoxy)phenoxy)butanoyl)amino)butanoic acid] was run?
A: 6.91

Q: And the inhibition at 1.7 µM [2]?
A: 97.7%

Q: `Cc1c(NS(C)(=O)=O)cccc1N(Cc1ccccc1)Cc1ccc(Oc2ccc(CCC(=O)NCCCC(=O)O)cc2)cc1` [Example 106, 4-{[3-(4-{4-[(benzyl{2-methyl-3-[(methylsulfonyl)amino]phenyl}amino)methyl]phenoxy}phenyl)propanoyl]amino}butanoic acid] was tested. Which pIC50 [1] did it give?
A: 5.89

Q: What about the inhibition at 1.7 µM [2] of the same compound?
A: 96%

Q: How did the pIC50 [1] turn out when `Cc1c(NS(C)(=O)=O)cccc1N(Cc1ccccc1F)Cc1ccc(F)cc1F` [Example 23, N-{3-[(2,4-difluorobenzyl)(2-fluorobenzyl)amino]-2-methylphenyl}methanesulfonamide] was run?
A: 6.04

Q: What about the inhibition at 1.7 µM [2] of the same compound?
A: 92%

Q: What does the source list for `Cc1c(NS(C)(=O)=O)cccc1N(Cc1ccccc1)Cc1ccc(Oc2ccc(CCC(=O)NCCCCCO)cc2)cc1` [Example 149, 3-(4-{4-[(benzyl{2-methyl-3-[(methylsulfonyl)amino]phenyl}amino)methyl]phenoxy}phenyl)-N-(5-hydroxypentyl)propanamide]?
A: pIC50 [1]: 5.37; inhibition at 1.7 µM [2]: 94.7%

Q: `Cc1c(NS(C)(=O)=O)cccc1N(Cc1ccccc1)Cc1ccc(Oc2ccc(CCC(=O)NCCCCO)cc2)cc1` [Example 150, 3-(4-{4-[(benzyl{2-methyl-3-[(methylsulfonyl)amino]phenyl}amino)methyl]phenoxy}phenyl)-N-(4-hydroxybutyl)propanamide] was tested. Which pIC50 [1] did it give?
A: 5.59

Q: And the inhibition at 1.7 µM [2]?
A: 94.3%

Q: What does the source list for `Cc1c(NS(C)(=O)=O)cccc1N(Cc1ccccc1)Cc1ccc(Oc2cccc(OCC(=O)NCCCN3CCCC3=O)c2)cc1` [Example 114, 2-(3-{4-[(benzyl{2-methyl-3-[(methylsulfonyl)amino]phenyl}amino)methyl]phenoxy}phenoxy)-N-[3-(2-oxopyrrolidin-1-yl)propyl]acetamide]?
A: pIC50 [1]: 5.86; inhibition at 1.7 µM [2]: 96.7%

Q: How did the pIC50 [1] turn out when `Cc1c(NS(C)(=O)=O)cccc1N(Cc1ccccc1)Cc1ccc(Oc2ccc(Br)c(OCC(=O)O)c2)cc1` [Example 77, (5-{4-[(benzyl{2-methyl-3-[(methylsulfonyl)amino]phenyl}amino)methyl]phenoxy}-2-bromophenoxy)acetic acid] was run?
A: 6.60

Q: What about the inhibition at 1.7 µM [2] of the same compound?
A: 97.1%
